Measured values as given in ChEMBL document CHEMBL4229455, “Synthesis and anticancer activity of novel bisindolylhydroxymaleimide derivatives with potent GSK-3 kinase inhibition” (Bioorg Med Chem, 2018).

Legend:
Format in all cases: functional
K562 [1] = experiment: Cytotoxicity against human K562 cells assessed as cell growth at 0.01 uM after 48 hrs by SRB assay relative to control; conditions: K562, 48 h, read-out: Activity
SK-MEL-5 = experiment: Cytotoxicity against human SK-MEL-5 cells assessed as cell growth at 0.01 uM after 48 hrs by SRB assay relative to control; conditions: SK-MEL-5, 48 h, read-out: Activity
CAKI-1 = experiment: Cytotoxicity against human Caki1 cells assessed as cell growth at 100 uM after 48 hrs by SRB assay relative to control; conditions: CAKI-1, 48 h, read-out: Activity
NCI-H522 = experiment: Cytotoxicity against human NCI-H522 cells assessed as cell growth at 100 uM after 48 hrs by SRB assay relative to control; conditions: NCI-H522, 48 h, read-out: Activity
SNB-75 [2] = experiment: Cytotoxicity against human SNB75 cells assessed as cell growth at 100 uM after 48 hrs by SRB assay relative to control; conditions: SNB-75, 48 h, read-out: Activity
NCI-H226 [3] = experiment: Cytotoxicity against human NCI-H226 cells assessed as cell growth at 1 uM after 48 hrs by SRB assay relative to control; conditions: NCI-H226, 48 h, read-out: Activity
SN12C [4] = experiment: Cytotoxicity against human SN12C cells assessed as cell growth at 100 uM after 48 hrs by SRB assay relative to control; conditions: read-out: Activity
SF-539 = experiment: Cytotoxicity against human SF539 cells assessed as cell growth at 100 uM after 48 hrs by SRB assay relative to control; conditions: SF-539, 48 h, read-out: Activity
LOX IMVI = experiment: Cytotoxicity against human LOXIMVI cells assessed as cell growth at 1 uM after 48 hrs by SRB assay relative to control; conditions: read-out: Activity
SK-MEL-28 = experiment: Cytotoxicity against human SK-MEL-28 cells assessed as cell growth at 0.1 uM after 48 hrs by SRB assay relative to control; conditions: SK-MEL-28, 48 h, read-out: Activity
SNB-19 = experiment: Cytotoxicity against human SNB19 cells assessed as cell growth at 100 uM after 48 hrs by SRB assay relative to control; conditions: SNB-19, 48 h, read-out: Activity
HOP-62 [5] = experiment: Cytotoxicity against human HOP62 cells assessed as cell growth at 0.1 uM after 48 hrs by SRB assay relative to control; conditions: HOP-62, 48 h, read-out: Activity
UACC-62 = experiment: Cytotoxicity against human UACC62 cells assessed as cell growth at 0.1 uM after 48 hrs by SRB assay relative to control; conditions: UACC-62, 48 h, read-out: Activity
NCI-H23 [6] = experiment: Cytotoxicity against human NCI-H23 cells assessed as cell growth at 100 uM after 48 hrs by SRB assay relative to control; conditions: NCI-H23, 48 h, read-out: Activity
ACHN = experiment: Cytotoxicity against human ACHN cells assessed as cell growth at 100 uM after 48 hrs by SRB assay relative to control; conditions: read-out: Activity
UO-31 [7] = experiment: Cytotoxicity against human UO31 cells assessed as cell growth at 1 uM after 48 hrs by SRB assay relative to control; conditions: UO-31, 48 h, read-out: Activity
NCI-H23 [8] = experiment: Cytotoxicity against human NCI-H23 cells after 48 hrs by SRB assay; conditions: NCI-H23, 48 h
SNB-75 [9] = experiment: Cytotoxicity against human SNB75 cells assessed as cell growth at 0.01 uM after 48 hrs by SRB assay relative to control; conditions: SNB-75, 48 h, read-out: Activity
SK-MEL-2 = experiment: Cytotoxicity against human SK-MEL-2 cells assessed as cell growth at 1 uM after 48 hrs by SRB assay relative to control; conditions: SK-MEL-2, 48 h, read-out: Activity
MCF7 [10] = experiment: Cytotoxicity against human MCF7 cells assessed as cell growth at 0.1 uM after 48 hrs by SRB assay relative to control; conditions: MCF7, 48 h, read-out: Activity
CCRF-CEM = experiment: Cytotoxicity against human CCRF-CEM cells assessed as cell growth at 100 uM after 48 hrs by SRB assay relative to control; conditions: read-out: Activity
HCT-15 = experiment: Cytotoxicity against human HCT15 cells assessed as cell growth at 1 uM after 48 hrs by SRB assay relative to control; conditions: HCT-15, 48 h, read-out: Activity
MDA-MB-468 = experiment: Cytotoxicity against human MDA-MB-468 cells assessed as cell growth at 0.01 uM after 48 hrs by SRB assay relative to control; conditions: MDA-MB-468, 48 h, read-out: Activity
UO-31 [11] = experiment: Cytotoxicity against human UO31 cells assessed as cell growth at 0.01 uM after 48 hrs by SRB assay relative to control; conditions: UO-31, 48 h, read-out: Activity
HOP-62 [12] = experiment: Cytotoxicity against human HOP62 cells assessed as cell growth at 0.01 uM after 48 hrs by SRB assay relative to control; conditions: HOP-62, 48 h, read-out: Activity
HOP-62 [13] = experiment: Cytotoxicity against human HOP62 cells assessed as cell growth at 1 uM after 48 hrs by SRB assay relative to control; conditions: HOP-62, 48 h, read-out: Activity
COLO 205 [14] = experiment: Cytotoxicity against human COLO205 cells assessed as cell growth at 100 uM after 48 hrs by SRB assay relative to control; conditions: COLO 205, 48 h, read-out: Activity
T47D = experiment: Cytotoxicity against human T47D cells assessed as cell growth at 100 uM after 48 hrs by SRB assay relative to control; conditions: read-out: Activity
IGROV-1 = experiment: Cytotoxicity against human IGROV1 cells assessed as cell growth at 0.01 uM after 48 hrs by SRB assay relative to control; conditions: IGROV-1, 48 h, read-out: Activity
SN12C [15] = experiment: Cytotoxicity against human SN12C cells assessed as cell growth at 1 uM after 48 hrs by SRB assay relative to control; conditions: read-out: Activity
SF-295 = experiment: Cytotoxicity against human SF295 cells assessed as cell growth at 1 uM after 48 hrs by SRB assay relative to control; conditions: SF-295, 48 h, read-out: Activity
PC-3 = experiment: Cytotoxicity against human PC3 cells assessed as cell growth at 0.01 uM after 48 hrs by SRB assay relative to control; conditions: PC-3, 48 h, read-out: Activity
NCI-H226 [16] = experiment: Cytotoxicity against human NCI-H226 cells assessed as cell growth at 0.01 uM after 48 hrs by SRB assay relative to control; conditions: NCI-H226, 48 h, read-out: Activity
MDA-MB-231 = experiment: Cytotoxicity against human MDA-MB-231 cells assessed as cell growth at 100 uM after 48 hrs by SRB assay relative to control; conditions: MDA-MB-231, 48 h, read-out: Activity
K562 [17] = experiment: Cytotoxicity against human K562 cells assessed as cell growth at 0.1 uM after 48 hrs by SRB assay relative to control; conditions: K562, 48 h, read-out: Activity
MCF7 [18] = experiment: Cytotoxicity against human MCF7 cells after 48 hrs by SRB assay; conditions: MCF7, 48 h
COLO 205 [19] = experiment: Cytotoxicity against human COLO205 cells assessed as cell growth at 0.01 uM after 48 hrs by SRB assay relative to control; conditions: COLO 205, 48 h, read-out: Activity

## Cn1cc(C2=C(c3cn(C)c4ncccc34)C(=O)NC2=O)c2ccccc21
K562 [1]
  growth at 0.01 µM: 108%
SK-MEL-5
  growth at 0.01 µM: 102%
CAKI-1
  growth at 100 µM: -10%
NCI-H522
  growth at 100 µM: -30%
SNB-75 [2]
  growth at 100 µM: -51%
NCI-H226 [3]
  growth at 1 µM: 86%
SN12C [4]
  growth at 100 µM: -14%
SF-539
  growth at 100 µM: -64%
LOX IMVI
  growth at 1 µM: 74%
SK-MEL-28
  growth at 0.1 µM: 95%
SNB-19
  growth at 100 µM: -11%
HOP-62 [5]
  growth at 0.1 µM: 103%
UACC-62
  growth at 0.1 µM: 97%
NCI-H23 [6]
  growth at 100 µM: -40%
ACHN
  growth at 100 µM: -11%
UO-31 [7]
  growth at 1 µM: 75%
NCI-H23 [8]
  GI50: 4.18 µM
  TGI: 26.7 µM
SNB-75 [9]
  growth at 0.01 µM: 83%
SK-MEL-2
  growth at 1 µM: 111%
MCF7 [10]
  growth at 0.1 µM: 87%
CCRF-CEM
  growth at 100 µM: 2%
HCT-15
  growth at 1 µM: 84%
MDA-MB-468
  growth at 0.01 µM: 101%
UO-31 [11]
  growth at 0.01 µM: 90%
HOP-62 [12]
  growth at 0.01 µM: 110%
HOP-62 [13]
  growth at 1 µM: 87%
COLO 205 [14]
  growth at 100 µM: -65%
T47D
  growth at 100 µM: -11%
IGROV-1
  growth at 0.01 µM: 98%
SN12C [15]
  growth at 1 µM: 76%
SF-295
  growth at 1 µM: 85%
PC-3
  growth at 0.01 µM: 99%
NCI-H226 [16]
  growth at 0.01 µM: 99%
MDA-MB-231
  growth at 100 µM: -25%
K562 [17]
  growth at 0.1 µM: 102%
MCF7 [18]
  GI50: 2.4 µM
  TGI: 29.5 µM
COLO 205 [19]
  growth at 0.01 µM: 105%

## N#CCCCCCn1cc(C2=C(c3cn(CCCCCC#N)c4ccccc34)C(=O)N(O)C2=O)c2ccccc21
K562 [1]
  growth at 0.01 µM: 85%
SK-MEL-5
  growth at 0.01 µM: 99%
CAKI-1
  growth at 100 µM: 16%
NCI-H522
  growth at 100 µM: -30%
SNB-75 [2]
  growth at 100 µM: -32%
NCI-H226 [3]
  growth at 1 µM: 89%
SN12C [4]
  growth at 100 µM: 5%
SF-539
  growth at 100 µM: -36%
LOX IMVI
  growth at 1 µM: 71%
SK-MEL-28
  growth at 0.1 µM: 102%
SNB-19
  growth at 100 µM: 20%
HOP-62 [5]
  growth at 0.1 µM: 85%
UACC-62
  growth at 0.1 µM: 94%
NCI-H23 [6]
  growth at 100 µM: 1%
ACHN
  growth at 100 µM: 4%
UO-31 [7]
  growth at 1 µM: 59%
NCI-H23 [8]
  GI50: 6.09 µM
  LC50 (concentration killing 50% of cells): > 100 µM
  TGI: > 100 µM
SNB-75 [9]
  growth at 0.01 µM: 79%
SK-MEL-2
  growth at 1 µM: 97%
MCF7 [10]
  growth at 0.1 µM: 85%
CCRF-CEM
  growth at 100 µM: 3%
HCT-15
  growth at 1 µM: 92%
MDA-MB-468
  growth at 0.01 µM: 106%
UO-31 [11]
  growth at 0.01 µM: 97%
HOP-62 [12]
  growth at 0.01 µM: 94%
HOP-62 [13]
  growth at 1 µM: 83%
COLO 205 [14]
  growth at 100 µM: -22%
T47D
  growth at 100 µM: -7%
IGROV-1
  growth at 0.01 µM: 104%
SN12C [15]
  growth at 1 µM: 93%
SF-295
  growth at 1 µM: 96%
PC-3
  growth at 0.01 µM: 93%
NCI-H226 [16]
  growth at 0.01 µM: 95%
MDA-MB-231
  growth at 100 µM: -7%
K562 [17]
  growth at 0.1 µM: 91%
MCF7 [18]
  GI50: 3.57 µM
  LC50 (concentration killing 50% of cells): > 100 µM
  TGI: 30.7 µM
COLO 205 [19]
  growth at 0.01 µM: 99%
